Experiments:
[1] = physchem; format: physicochemical; conditions: 22 °C, pH 6.6, aqueous buffer, kinetic from dmso stock
[2] = Curcumin solubility in pH 6.5 10 mM NaAc buffer as affected by carriers; format: physicochemical; conditions: carrier 10 mg/mL; for Curcumin Solubility: excess curcumin homogenized
Description: Thereafter, 1.0 mL aliquot was drawn from each mixture and subjected to centrifugation. The supernatant was added to ethanol to extract curcumin.

[3] = test system: Salmonella typhimurium; test: Minimum inhibitory concentration of thymol in BHI broth (turbidity); format: cell-based; conditions: Salmonella enterica, 37° C., 24 hours, 1.0% (v/v) inoculum
Description: The mixture was subjected to high speed homogenization. After homogenization, the dispersion was centrifuged to collect aqueous liquid. The concentration of thymol in this phytoglycogen-thymol liquid stock was determined to be about 400 μg/mL. As reference, a thymol-alone stock of 400 μg/mL in sodium acetate buffer (50 mM, pH 5.5) was prepared by adding thymol in the buffer and vortex. The phytoglycogen-thymol stock and thymol-alone stock were added to Brain Heart Infusion (BHI) broth to make the thymol concentrations of 12.5, 25, 50, 80, 100, and 125 μg/mL. To the glass tubes containing these broth liquids, Salmonella typhimurium culture (about 10^9 CFU/mL) was inoculated at a 1.0% (v/v) level, and all liquids were incubated at 37° C. for 24 hours. Thereafter, the tubes were photographed for comparing the turbidity.

Compound	solubility at 2 h [1] [µg/mL]	Carrier/curcumin ratio [2]	Curcumin Solubility [2] [µg/mL]	MIC [3] [µg/mL]
COc1cc(/C=C/C(=O)CC(=O)/C=C/c2ccc(O)c(OC)c2)ccc1O [curcumin]	< 0.3			
OC[C@H]1O[C@@H]2O[C@H]3[C@H](O)[C@@H](O)[C@@H](O[C@H]4[C@H](O)[C@@H](O)[C@@H](O[C@H]5[C@H](O)[C@@H](O)[C@@H](O[C@H]6[C@H](O)[C@@H](O)[C@@H](O[C@H]7[C@H](O)[C@@H](O)[C@@H](O[C@H]8[C@H](O)[C@@H](O)[C@@H](O[C@H]1[C@H](O)[C@H]2O)O[C@@H]8CO)O[C@@H]7CO)O[C@@H]6CO)O[C@@H]5CO)O[C@@H]4CO)O[C@@H]3CO [βCD, β-cyclodextrin]		222/1	45.1	
Cc1ccc(C(C)C)c(O)c1 [thymol-alone, thymol]				> 125
hydroxypropyl β-cyclodextrin [HPβCD]		91/1	110	
